Data as given in US9221808B2, “Pyridylthiazole-based ureas as inhibitors of Rho associated protein kinase (ROCK) and methods of use” (H. Lee Moffitt Cancer Center and Research Institute, Inc., priority 2010, dated 2015).
Where “and” joins values, the source holds several entries; their conditions need not be identical. Equal values may be shown once. Where a name gives a salt, the structure may show the parent alone. Read-outs that look alike come from different tables or passages of the source.

Experiments:
ROCK1 = ROCK1 (Homo sapiens (Human), UniProt Q13464); experiment: FRET-based Z'-Lyte kinase assay, ROCK1; format: biochemical; settings: for IC50: read-out: IC50 ± SD (μM) ROCK1; for inhibition at 50 µM: read-out: ROCK1 % inhibition @ 50 μM;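 on all read-outs here: kinase phosphorylates a coumarin/fluorescein-labelled FRET peptide, then a protease cleaves unphosphorylated peptide, progress read as donor to acceptor emission ratio after 400 nm excitation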
ROCK1, sequence (Q13464 whole entry, species assumed): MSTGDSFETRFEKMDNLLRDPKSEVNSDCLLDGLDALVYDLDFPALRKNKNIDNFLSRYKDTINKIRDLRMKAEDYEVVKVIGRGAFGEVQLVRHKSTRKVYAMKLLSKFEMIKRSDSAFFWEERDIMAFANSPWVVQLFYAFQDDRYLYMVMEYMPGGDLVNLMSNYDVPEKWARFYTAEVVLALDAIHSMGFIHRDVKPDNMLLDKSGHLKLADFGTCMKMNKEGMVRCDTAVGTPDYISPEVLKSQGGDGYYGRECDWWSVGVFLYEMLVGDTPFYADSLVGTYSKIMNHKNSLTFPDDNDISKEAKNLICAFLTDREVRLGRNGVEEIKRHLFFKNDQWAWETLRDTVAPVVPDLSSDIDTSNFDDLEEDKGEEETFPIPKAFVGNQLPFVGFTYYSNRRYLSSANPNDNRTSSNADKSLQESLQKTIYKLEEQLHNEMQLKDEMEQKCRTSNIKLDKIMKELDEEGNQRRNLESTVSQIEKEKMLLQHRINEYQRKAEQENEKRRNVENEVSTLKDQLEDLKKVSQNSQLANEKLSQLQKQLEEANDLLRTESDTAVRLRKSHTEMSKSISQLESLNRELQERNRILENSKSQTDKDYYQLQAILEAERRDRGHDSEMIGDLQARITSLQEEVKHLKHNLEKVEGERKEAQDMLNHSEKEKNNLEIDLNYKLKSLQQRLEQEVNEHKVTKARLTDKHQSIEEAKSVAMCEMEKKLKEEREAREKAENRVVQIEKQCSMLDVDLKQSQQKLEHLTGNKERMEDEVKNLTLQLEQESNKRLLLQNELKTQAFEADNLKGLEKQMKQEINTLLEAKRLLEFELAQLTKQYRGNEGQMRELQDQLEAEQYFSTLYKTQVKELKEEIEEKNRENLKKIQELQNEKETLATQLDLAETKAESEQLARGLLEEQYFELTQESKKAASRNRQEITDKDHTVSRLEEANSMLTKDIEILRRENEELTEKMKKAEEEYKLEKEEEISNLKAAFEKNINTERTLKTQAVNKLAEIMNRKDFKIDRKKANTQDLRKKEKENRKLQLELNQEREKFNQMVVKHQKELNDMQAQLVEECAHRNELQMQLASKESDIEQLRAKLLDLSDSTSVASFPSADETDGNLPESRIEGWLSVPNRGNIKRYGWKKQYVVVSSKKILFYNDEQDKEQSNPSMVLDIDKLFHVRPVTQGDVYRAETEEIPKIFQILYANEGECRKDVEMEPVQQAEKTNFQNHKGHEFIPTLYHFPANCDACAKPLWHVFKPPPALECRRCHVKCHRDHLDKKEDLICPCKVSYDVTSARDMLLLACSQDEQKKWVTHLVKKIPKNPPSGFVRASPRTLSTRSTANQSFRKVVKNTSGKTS
Description: (§1) A) In the primary reaction, the Rho kinases phosphorylates a single serine or threonine residue in a synthetic FRET-peptide. This FRET-peptide is doubly labeled with a fluorophore at each end—coumarin (the FRET donor) on one end and fluorescein (the FRET acceptor) on the other—and also contains a single phosphorylation site which either overlaps with or lies adjacent to the proteolytic site. B) In the secondary reaction, a site-specific protease recognizes and cleaves the non-phosphorylated FRET-peptide. Cleavage disrupts FRET between the donor and acceptor fluorophores on the FRET-peptide, whereas uncleaved, phosphorylated FRET-peptides maintain FRET. Kinases phosphorylated FRET-peptides cannot be cleaved by the protease. […] Cleavage disrupts FRET and causes a decrease in the fluorescein fluorescence signal and a strong increase in the coumarin fluorescence signal. Therefore the extension of the phosphprylation can be measured by FRET-signal remaining the protease reaction. The assay uses a ratiometric method, which calculates the ratio of donor emission to acceptor emission (the emission ratio) after excitation of the donor fluorophore at 400 nm, to quantitate reaction progress.
(§2) All compounds were systematically screened against ROCK1 and ROCK2.

ROCK2 = ROCK2 (Homo sapiens (Human), UniProt O75116); experiment: FRET-based Z'-Lyte kinase assay, ROCK2; format: biochemical; settings: read-out: IC50 ± SD (μM) ROCK2;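 further: kinase phosphorylates a coumarin/fluorescein FRET peptide, then a protease cleaves unphosphorylated peptide, read as donor/acceptor emission ratio after 400 nm excitation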
ROCK2, sequence (O75116 whole entry, species assumed): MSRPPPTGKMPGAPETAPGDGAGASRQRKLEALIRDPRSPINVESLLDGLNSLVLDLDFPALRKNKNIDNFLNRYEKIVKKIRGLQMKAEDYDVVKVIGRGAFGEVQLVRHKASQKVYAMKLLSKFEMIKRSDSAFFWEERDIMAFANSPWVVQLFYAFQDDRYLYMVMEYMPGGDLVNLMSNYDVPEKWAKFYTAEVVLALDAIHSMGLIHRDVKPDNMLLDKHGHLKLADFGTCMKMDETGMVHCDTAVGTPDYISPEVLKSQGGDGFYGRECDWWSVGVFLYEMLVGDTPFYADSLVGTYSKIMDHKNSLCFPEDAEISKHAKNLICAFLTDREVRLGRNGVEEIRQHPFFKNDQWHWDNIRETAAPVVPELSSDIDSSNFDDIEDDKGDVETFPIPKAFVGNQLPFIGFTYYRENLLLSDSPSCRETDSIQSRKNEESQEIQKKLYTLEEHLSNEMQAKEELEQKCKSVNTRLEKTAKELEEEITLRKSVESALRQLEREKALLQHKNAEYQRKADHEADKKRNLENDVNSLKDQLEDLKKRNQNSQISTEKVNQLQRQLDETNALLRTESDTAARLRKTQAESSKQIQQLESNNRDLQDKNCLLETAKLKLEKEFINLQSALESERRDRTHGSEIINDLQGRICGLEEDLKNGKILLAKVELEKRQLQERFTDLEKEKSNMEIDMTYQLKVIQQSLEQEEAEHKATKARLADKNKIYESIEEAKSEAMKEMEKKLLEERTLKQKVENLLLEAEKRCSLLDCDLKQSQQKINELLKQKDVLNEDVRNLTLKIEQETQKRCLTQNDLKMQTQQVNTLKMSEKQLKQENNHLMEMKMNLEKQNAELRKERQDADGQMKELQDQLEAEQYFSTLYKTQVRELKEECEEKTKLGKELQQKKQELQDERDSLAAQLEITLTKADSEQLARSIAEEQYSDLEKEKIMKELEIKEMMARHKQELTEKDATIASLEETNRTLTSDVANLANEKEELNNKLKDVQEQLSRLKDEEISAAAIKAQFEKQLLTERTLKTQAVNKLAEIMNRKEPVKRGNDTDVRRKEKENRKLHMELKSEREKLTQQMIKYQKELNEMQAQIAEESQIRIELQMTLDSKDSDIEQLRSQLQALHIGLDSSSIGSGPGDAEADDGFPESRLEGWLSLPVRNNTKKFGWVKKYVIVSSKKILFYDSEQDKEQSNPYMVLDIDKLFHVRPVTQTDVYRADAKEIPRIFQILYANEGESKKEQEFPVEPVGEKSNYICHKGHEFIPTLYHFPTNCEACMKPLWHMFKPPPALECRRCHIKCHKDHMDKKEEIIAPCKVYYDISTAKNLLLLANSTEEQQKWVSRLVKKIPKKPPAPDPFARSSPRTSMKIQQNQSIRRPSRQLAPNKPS
Description: as §1, §2

SMILES	IC50 (ROCK1)	IC50 (ROCK2)	inhibition at 50 µM (ROCK1; 50 μM compound)	further results
O=C(NCc1ccccc1)Nc1nc(-c2ccncc2)cs1 [Compound 1aa, 1-Benzyl-3-(4-(pyridin-4-yl)thiazol-2-yl)urea]	0.15 µM and 0.17 µM	0.09 µM and 0.05 µM	–	–
O=C(NCc1ccc(Cl)cc1)Nc1nc(-c2ccncc2)cs1 [Compound 1ab, 1-(4-Chlorobenzyl)-3-(4-(pyridin-4-yl)thiazol-2-yl)urea]	2.39 ± 0.53 µM	1.1 ± 0.16 µM	–	–
O=C(NCc1ccccc1F)Nc1nc(-c2ccncc2)cs1 [Compound 1ac, 1-(2-Fluorobenzyl)-3-(4-(pyridin-4-yl)thiazol-2-yl)urea]	0.4 ± 0.03 µM	0.12 ± 0.01 µM	–	–
COc1ccccc1CNC(=O)Nc1nc(-c2ccncc2)cs1 [Compound 1ad, 1-(2-Methoxybenzyl)-3-(4-(pyridin-4-yl)thiazol-2-yl)urea]	1.4 ± 0.11 µM	0.47 ± 0.03 µM	–	–
O=C(NCc1ccccc1Cl)Nc1nc(-c2ccncc2)cs1 [Compound 1ae, 1-(2-Chlorobenzyl)-3-(4-(pyridin-4-yl)thiazol-2-yl)urea]	0.34 ± 0.02 µM	0.11 ± 0.01 µM	–	–
COc1cccc(CNC(=O)Nc2nc(-c3ccncc3)cs2)c1 [Compound 1af, 1-(3-Methoxybenzyl)-3-(4-(pyridin-4-yl)thiazol-2-yl)urea]	0.06 µM and 0.027 µM	0.01 µM and 0.011 µM	–	–
COc1cccc(CNC(=O)Nc2nc(-c3ccncc3)cs2)c1 [Compound 1af-HCl, 1-(3-methoxybenzyl)-3-(4-(pyridin-4-yl)thiazol-2-yl)urea hydrochloride]	–	–	–	IC50 (ROCK1; hydrochloride): 0.023 ± 0.01 µM; IC50 (ROCK2; hydrochloride): 0.014 ± 0.01 µM
COc1cccc(CNC(=O)Nc2nc(-c3ccncc3)cs2)c1 [Compound 1af-Mes, 1-(3-methoxybenzyl)-3-(4-(pyridin-4-yl)thiazol-2-yl)urea methanesulfonate]	–	–	–	IC50 (ROCK1; methanesulfonate): 0.03 ± 0.01 µM; IC50 (ROCK2; methanesulfonate): 0.01 µM
O=C(NCc1ccc(Cl)cc1Cl)Nc1nc(-c2ccncc2)cs1 [Compound 1ag, 1-(2,4-Dichlorobenzyl)-3-(4-(pyridin-4-yl)thiazol-2-yl)urea]	1.88 ± 0.17 µM	0.4 ± 0.07 µM	–	–
C[C@@H](NC(=O)Nc1nc(-c2ccncc2)cs1)c1ccccc1 [Compound 1ah, (R)-1-(1-Phenylethyl)-3-(4-(pyridin-4-yl)thiazol-2-yl)urea]	0.043 µM and 0.019 µM	0.012 ± 0.004 µM	–	fold more potent than parent compound 1aa (ROCK1; comparator 1aa): 7 fold; fold more potent/active than its enantiomer (ROCK1; comparator: enantiomer (1ai for 1ah, 1bf for 1be)): 215 fold
C[C@H](NC(=O)Nc1nc(-c2ccncc2)cs1)c1ccccc1 [Compound 1ai, (S)-1-(1-Phenylethyl)-3-(4-(pyridin-4-yl)thiazol-2-yl)urea]	3.56 µM and 3.29 µM	1.6 µM and 1.9 µM	–	–
O=C(NCc1cccc(F)c1)Nc1nc(-c2ccncc2)cs1 [Compound 1aj, 1-(3-Fluorobenzyl)-3-(4-(pyridin-4-yl)thiazol-2-yl)urea]	0.14 µM and 0.1 µM	0.06 µM and 0.05 µM	–	–
O=C(NCc1ccco1)Nc1nc(-c2ccncc2)cs1 [Compound 1ak1, 1-(Furan-2-ylmethyl)-3-(4-(pyridin-4-yl)thiazol-2-yl)urea]	1.17 ± 0.15 µM	0.38 ± 0.03 µM	–	–
O=C(NCc1ccc(F)cc1)Nc1nc(-c2ccncc2)cs1 [Compound 1ak, 1-(4-Fluorobenzyl)-3-(4-(pyridin-4-yl)thiazol-2-yl)urea]	0.57 ± 0.05 µM	0.19 µM	–	–
COc1cccc(CNC(=O)N(C)c2nc(-c3ccncc3)cs2)c1 [Compound 1al, 3-(3-Methoxybenzyl)-1-methyl-1-(4-(pyridin-4-yl)thiazol-2-yl)urea]	0.06 ± 0.04 µM	0.002 ± 0.0015 µM	–	–
COc1ccc(CNC(=O)Nc2nc(-c3ccncc3)cs2)cc1.Cl [Compound 1am-HCl, 1-(4-methoxybenzyl)-3-(4-(pyridin-4-yl)thiazol-2-yl)urea hydrochloride]	–	–	–	ROCK1 % inhibition @ 50 μM (ROCK1; 50 μM compound): ROCK1 % inhibition @ 50 μM: 15.26 ± 0.91
COc1ccc(CNC(=O)Nc2nc(-c3ccncc3)cs2)cc1 [Compound 1am-Mes, 1-(4-methoxybenzyl)-3-(4-(pyridin-4-yl)thiazol-2-yl)urea methanesulfonate]	36.2 ± 10 µM	7.42 ± 2.29 µM	–	–
O=C(NCc1cccc(Cl)c1)Nc1nc(-c2ccncc2)cs1 [Compound 1an, 1-(3-Chlorobenzyl)-3-(4-(pyridin-4-yl)thiazol-2-yl)urea]	0.1 µM and 0.14 µM	0.06 ± 0.01 µM	–	–
O=C(NCc1cccnc1)Nc1nc(-c2ccncc2)cs1 [Compound 1ao, 1-(Pyridin-3-ylmethyl)-3-(4-(pyridin-4-yl)thiazol-2-yl)urea]	0.91 ± 0.15 µM	0.49 ± 0.07 µM	–	–
O=C(NCc1ccccn1)Nc1nc(-c2ccncc2)cs1 [Compound 1ap, 1-(Pyridin-2-ylmethyl)-3-(4-(pyridin-4-yl)thiazol-2-yl)urea]	1.82 ± 0.18 µM	1.44 ± 0.22 µM	–	–
O=C(NCc1ccncc1)Nc1nc(-c2ccncc2)cs1 [Compound 1aq, 1-(4-(Pyridin-4-yl)thiazol-2-yl)-3-(pyridin-4-ylmethyl)urea]	2.07 ± 0.29 µM	1.47 ± 0.13 µM	–	–
CN(Cc1ccccc1)C(=O)Nc1nc(-c2ccncc2)cs1 [Compound 1au, 1-Benzyl-1-methyl-3-(4-(pyridin-4-yl)thiazol-2-yl)urea]	0.11 ± 0.003 µM	0.07 ± 0.015 µM	–	–

SMILES	IC50 (ROCK1)	IC50 (ROCK2)	inhibition at 50 µM (ROCK1; 50 μM compound)	further results
O=C(NCc1cccc2ccccc12)Nc1nc(-c2ccncc2)cs1 [Compound 1av, 1-(Naphthalen-1-ylmethyl)-3-(4-(pyridin-4-yl)thiazol-2-yl)urea]	1.1 ± 0.202 µM	0.58 ± 0.218 µM	–	–
O=C(NCCc1ccccc1)Nc1nc(-c2ccncc2)cs1 [Compound 1aw, 1-Phenethyl-3-(4-(pyridin-4-yl)thiazol-2-yl)urea]	0.48 ± 0.037 µM	0.38 ± 0.107 µM	–	fold decrease in ROCK1 activity/potency compared to parent compound 1aa (ROCK1; comparator 1aa): 3 fold
O=C(NCc1ccc([N+](=O)[O-])cc1)Nc1nc(-c2ccncc2)cs1 [Compound 1az, 1-(4-Nitrobenzyl)-3-(4-(pyridin-4-yl)thiazol-2-yl)urea]	–	–	34.5%	–
COc1cc(CNC(=O)Nc2nc(-c3ccncc3)cs2)cc(OC)c1 [Compound 1bb, 1-(3,5-Dimethoxybenzyl)-3-(4-(pyridin-4-yl)thiazol-2-yl)urea]	–	–	9.95%	–
COc1cccc([C@@H](C)NC(=O)Nc2nc(-c3ccncc3)cs2)c1 [Compound 1bh, (R)-1-(1-(3-Methoxyphenyl)ethyl)-3-(4-(pyridin-4-yl)thiazol-2-yl)urea]	–	0.009 ± 0.007 µM	–	–
O=C(NCc1cccc(O)c1)Nc1nc(-c2ccncc2)cs1 [Compound 1bo-HCl, 1-(3-hydroxybenzyl)-3-(4-(pyridin-4-yl)thiazol-2-yl)urea]	0.009 µM	–	–	–
O=C(NCc1cccc(OC(F)(F)F)c1)Nc1nc(-c2ccncc2)cs1 [Compound 1br, 1-(4-(Pyridin-4-yl)thiazol-2-yl)-3-(3-(trifluoromethoxy)benzyl)urea]	–	–	7.48%	–
COc1ccc([C@H](C)NC(=O)Nc2nc(-c3ccncc3)cs2)cc1 [Compound 1by, (S)-1-(1-(4-methoxyphenyl)ethyl)-3-(4-(pyridin-4-yl)thiazol-2-yl)urea]	–	–	1.09%	–
C[C@H](NC(=O)Nc1nc(-c2ccncc2)cs1)c1cccc(Cl)c1 [Compound 1ce, (S)-1-(1-(3-chlorophenyl)ethyl)-3-(4-(pyridin-4-yl)thiazol-2-yl)urea]	> 50 µM	–	–	–
O=C(NCc1cc(Cl)cc(Cl)c1)Nc1nc(-c2ccncc2)cs1 [Compound 1cg, 1-(3,5-dichlorobenzyl)-3-(4-(pyridin-4-yl)thiazol-2-yl)urea]	–	–	-6.26%	–
O=C(Nc1nc(-c2ccncc2)cs1)NC1Cc2ccccc2C1 [Compound 1cr, 1-(2,3-Dihydro-1H-inden-2-yl)-3-(4-(pyridin-4-yl)thiazol-2-yl)urea]	–	–	40.9%	–
O=C(NCc1nc2ccccc2[nH]1)Nc1nc(-c2ccncc2)cs1 [Compound 1cs, 1-((1H-Benzo[d]imidazol-2-yl)methyl)-3-(4-(pyridin-4-yl)thiazol-2-yl)urea]	–	–	40.9%	–
O=C(Nc1ccccc1)Nc1nc(-c2ccncc2)cs1 [Compound 6a, 1-Phenyl-3-(4-(pyridin-4-yl)thiazol-2-yl)urea]	–	–	10.4%	–
O=C(Nc1nc(-c2ccncc2)cs1)Nc1ccc(F)cc1F [Compound 6b, 1-(2,4-Difluorophenyl)-3-(4-(pyridin-4-yl)thiazol-2-yl)urea]	–	–	14.5%	–
O=C(Nc1ccc(F)cc1)Nc1nc(-c2ccncc2)cs1 [Compound 6c, 1-(4-Fluorophenyl)-3-(4-(pyridin-4-yl)thiazol-2-yl)urea]	–	–	8.06%	–
O=C(Nc1nc(-c2ccncc2)cs1)Nc1ccccc1F [Compound 6d, 1-(2-Fluorophenyl)-3-(4-(pyridin-4-yl)thiazol-2-yl)urea]	–	–	13.3%	–
O=C(NC(=O)c1ccccc1)Nc1nc(-c2ccncc2)cs1 [Compound 8, N-(4-(Pyridin-4-yl)thiazol-2-ylcarbamoyl)benzamide]	–	–	16.3%	–
O=C(Nc1nc(-c2ccncc2)cs1)N1CCN(Cc2ccccc2)C[C@@H]1Cc1ccccc1 [Compound 12b, (S)-2,4-Dibenzyl-N-(4-(pyridin-4-yl)thiazol-2-yl)piperazine-1-carboxamide]	–	–	24.3%	–
O=C(Nc1nc(-c2ccncc2)cs1)N1CCN(C(=O)c2ccco2)CC1 [Compound 12c, 4-(Furan-2-carbonyl)-N-(4-(pyridin-4-yl)thiazol-2-yl)piperazine-1-carboxamide]	–	–	35%	–
O=C(Nc1nc(-c2ccncc2)cs1)N1CCN(c2ccncn2)CC1 [Compound 12d, N-(4-(Pyridin-4-yl)thiazol-2-yl)-4-(pyrimidin-4-yl)piperazine-1-carboxamide]	–	–	41.4%	–
O=C(Nc1nc(-c2ccncc2)cs1)N1CCN(c2cccnc2)CC1 [Compound 12e, 4-(Pyridin-3-yl)-N-(4-(pyridin-4-yl)thiazol-2-yl)piperazine-1-carboxamide]	–	–	14%	–
O=C(Nc1nc(-c2ccncc2)cs1)N1CCN(CC2CCCO2)CC1 (stereo not shown) [Compound 12f, N-(4-(Pyridin-4-yl)thiazol-2-yl)-4-((tetrahydrofuran-2-yl)methyl)piperazine-1-carboxamide]	–	–	-0.21%	–
